Measured values from publication PMC10046037, “GABRG2 Variants Associated with Febrile Seizures” (Biomolecules, 2023).

Target: T1, α1β3γ2 GABAA receptor, γ2F457S variant (Homo sapiens, UniProt P14867+P18507+P28472, F457S)
T1 construct: expressed in transfected cells; host or cells: HEK293T
T1 sequence (P14867 28-456): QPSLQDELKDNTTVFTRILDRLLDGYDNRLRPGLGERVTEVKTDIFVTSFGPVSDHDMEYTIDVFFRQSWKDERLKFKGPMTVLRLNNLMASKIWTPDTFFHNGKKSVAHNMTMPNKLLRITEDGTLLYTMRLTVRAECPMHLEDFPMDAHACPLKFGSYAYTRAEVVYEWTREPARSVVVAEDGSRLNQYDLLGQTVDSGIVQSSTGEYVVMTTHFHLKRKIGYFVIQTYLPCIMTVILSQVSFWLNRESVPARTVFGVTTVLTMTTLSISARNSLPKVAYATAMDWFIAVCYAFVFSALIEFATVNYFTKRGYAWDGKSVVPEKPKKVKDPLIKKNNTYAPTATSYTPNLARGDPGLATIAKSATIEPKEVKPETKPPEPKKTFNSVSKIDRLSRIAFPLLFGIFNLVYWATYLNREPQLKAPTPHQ
T1 sequence (P28472 26-473 isoform P28472-2): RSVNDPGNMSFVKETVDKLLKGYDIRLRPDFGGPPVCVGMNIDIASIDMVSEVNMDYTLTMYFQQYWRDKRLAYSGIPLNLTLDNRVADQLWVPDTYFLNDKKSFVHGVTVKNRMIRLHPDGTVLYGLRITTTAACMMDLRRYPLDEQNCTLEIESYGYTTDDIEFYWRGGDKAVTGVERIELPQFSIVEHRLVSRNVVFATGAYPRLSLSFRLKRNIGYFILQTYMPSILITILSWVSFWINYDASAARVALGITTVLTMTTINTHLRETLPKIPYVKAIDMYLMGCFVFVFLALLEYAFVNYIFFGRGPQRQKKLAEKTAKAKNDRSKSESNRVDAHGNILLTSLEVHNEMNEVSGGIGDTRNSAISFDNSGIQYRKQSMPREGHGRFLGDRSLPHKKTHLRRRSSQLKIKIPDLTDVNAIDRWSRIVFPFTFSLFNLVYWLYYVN
T1 sequence (P18507 40-475 F457S): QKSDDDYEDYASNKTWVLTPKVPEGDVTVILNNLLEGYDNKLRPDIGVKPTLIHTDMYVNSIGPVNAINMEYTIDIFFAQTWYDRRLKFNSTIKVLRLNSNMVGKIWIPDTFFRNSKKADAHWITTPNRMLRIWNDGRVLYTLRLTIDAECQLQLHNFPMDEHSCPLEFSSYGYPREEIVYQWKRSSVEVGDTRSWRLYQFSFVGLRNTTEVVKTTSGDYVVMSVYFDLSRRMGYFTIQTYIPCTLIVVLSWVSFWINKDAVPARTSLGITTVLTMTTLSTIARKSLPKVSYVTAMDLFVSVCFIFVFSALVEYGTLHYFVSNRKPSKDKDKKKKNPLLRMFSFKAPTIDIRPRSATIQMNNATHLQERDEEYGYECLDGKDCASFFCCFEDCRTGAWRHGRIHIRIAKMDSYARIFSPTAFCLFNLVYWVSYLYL
Assay: Automated patch clamp of GABA-elicited currents (SyncroPatch 384PE), γ2F457S
Type: cell-based
Conditions: mean
Protocol: The coding sequences of human α1 (GABRA1, NM_000806), β3 (GABRB3, NM_021912), and γ2 (GABRG2, NM_198904.2) GABAAR subunits were subcloned into the pcDNA3.1 expression vectors (Invitrogen, Waltham, MA, USA).
HEK293T cells (ATCC, CRL-11268) were cultured at 37 °C in a humidified 5% CO2 incubator and maintained in Dulbecco’s modified Eagle’s medium (Invitrogen) supplemented with 10% fetal bovine serum (Life Technologies, Carlsbad, CA, USA), and 100 IU/mL of penicillin/streptomycin (Life Technologies). For the expression experiments, 4 × 10^5 cells were transfected using polyethylenimine (PEI) reagent (40 kD, Polysciences, Warrington, PA, USA) at a DNA: to transfection reagent ratio of 1:2.5 and harvested 36 h after transfection. To express WT and variant α1β3γ2 receptors, a total of 3 µg of α1, β3, and γ2 (WT or mutant) subunit cDNAs were transfected at a ratio of 1:1:1 into 60 mm culture dishes. For the mock-transfected condition, an empty pcDNA3.1 vector was added for a final cDNA transfection amount of 3 μg. For the electrophysiology experiments, 2.5 × 10^5 cells were plated in 100 mm culture dishes and transfected after 24 h with 3 μg of cDNA of each α1, β3, γ2 (wild-type or mutant) subunit, using X-tremeGENE HP DNA transfection Reagent (Roche Diagnostics, Basel, Switzerland), following the manufacturer’s protocol. Recordings were obtained forty-eight hours after transfection.
Whole-cell patch clamp recordings were conducted according to the manufacturer’s standard procedure for the SyncroPatch 384 [31]. Whole-cell voltage-clamp recordings were performed at room temperature on HEK293T cells 48 h after transfection with GABAAR subunits, using the SyncroPatch 384PE (Nanion Technologies, Munich, Germany). Cells, at a concentration of 400,000 cells/mL, were harvested in suspension in external solution containing 140 mM of NaCl, 2 mM of CaCl2, 4 mM of KCl, 1 mM of MgCl2, 5 mM of glucose, and 10 mM of HEPES (pH 7.4 with NaOH, 298 mOsm). The cells were loaded in a multi-hole (4 holes per well) 384-well Nanion patch clamp (NPC) chip with a thick borosilicate glass bottom and an average resistance pore size of […]. Built-in electrophysiological protocols were used, and the data were digitized using PatchControl 384 (Nanion Technologies) application. Using PatchControl 384, electrophysiological parameters, such as seal resistance, capacitance, and series resistance, were determined for each well after the application of a test pulse, and subsequently monitored over time. […] The currents were normalized to the maximal response of each well, and the concentration–response curves were calculated from single-point additions. The EC50 values for each variant or wild-type receptor were calculated across multiple wells for each experimental condition.

- Deactivation (1 mM GABA for 5 ms, HEK293T, -80 mV): 224.8 ms
- IMAX (maximal GABA-evoked peak current) (1 mM GABA for 5 ms, HEK293T): 0.44 nA
- IMAX variant/IMAX WT (1 mM GABA): 21.96%
- Rise Time (10–90% rise time, 1 mM GABA for 5 ms, HEK293T): 60.51 ms
SMILES: NCCCC(=O)O [GABA, γ-aminobutyric acid]
